# Test results as given in ChEMBL document CHEMBL1124765, “Synthesis and biological properties of novel phosphotriesters: a new approach to the introduction of biologically active nucleotides into cells” (J Med Chem, 1990).
# Assay: pKa value was determined
# Type: physicochemical
smiles,measurement,value
CC(=O)O[C@H]1C[C@H](n2cc(C)c(=O)[nH]c2=O)O[C@@H]1COP(=O)(OC[C@H]1O[C@@H](n2cc(C)c(=O)[nH]c2=O)C[C@@H]1OC(C)=O)Oc1ccc(S(C)(=O)=O)cc1,pKa,7.83
CC(=O)O[C@H]1C[C@H](n2cc(C)c(=O)[nH]c2=O)O[C@@H]1COP(=O)(OC[C@H]1O[C@@H](n2cc(C)c(=O)[nH]c2=O)C[C@@H]1OC(C)=O)Oc1ccc(Cl)cc1,pKa,9.38
CSc1ccc(OP(=O)(OC[C@H]2O[C@@H](n3cc(C)c(=O)[nH]c3=O)C[C@@H]2OC(C)=O)OC[C@H]2O[C@@H](n3cc(C)c(=O)[nH]c3=O)C[C@@H]2OC(C)=O)cc1,pKa,9.53
CC(=O)O[C@H]1C[C@H](n2cc(C)c(=O)[nH]c2=O)O[C@@H]1COP(=O)(OC[C@H]1O[C@@H](n2cc(C)c(=O)[nH]c2=O)C[C@@H]1OC(C)=O)Oc1cc(Cl)ccc1Cl,pKa,7.5
